These results are taken from patent publication US7132547B2, “Preventives/remedies for urinary disturbance” (priority 2001, dated 2006).

The melting point is the temperature of the solid-liquid transition. In turn, `CN(CCCCC(=O)c1ccc2[nH]c(=O)[nH]c2c1)CCc1ccccc1.Cl` gave a melting point of 240 °C.

Turning to `COc1ccccc1CCN(C)CCCCC(=O)c1ccc2[nH]c(=O)[nH]c2c1.Cl`, the melting point is 169 to 180 °C (dec.).

As for `CN(CCCCC(=O)c1ccc2c(c1)n(C)c(=O)n2C)CCc1ccccc1.Cl`, the melting point was 142 to 157 °C (dec.).

As for `COc1ccccc1CCN(C)CCCCC(=O)c1ccc2c(c1)n(C)c(=O)n2C.Cl`, the melting point is 125 to 140 °C (dec.).

Consider `Cl.O=C(CCCCNCCc1ccccc1Cl)c1ccc2[nH]c(=O)[nH]c2c1`, for which the melting point stood at 233 °C.

Molecule `Cl.Cn1c(=O)n(C)c2cc(C(=O)CCCCNCCc3ccccc3)ccc21` showed a melting point of 187 to 189 °C.

In turn, `COc1ccc(CCNCCCCC(=O)c2cc3c4c(c2)CCN4C(=O)CC3)cc1.Cl` came in with a melting point of 179 to 181 °C.

For the molecule `Cl.O=C(CCCCNCCc1ccc(Cl)cc1)c1cc2c3c(c1)CCN3C(=O)CC2`, the melting point lay in the range of 193 to 195 °C.

As for `Cl.O=C(CCCCNCCc1ccccc1O)c1cc2c3c(c1)CCN3C(=O)CC2`, the melting point is 112 to 113 °C.

`Cl.O=C(CCCCNCCc1c(Cl)cccc1Cl)c1cc2c3c(c1)CCN3C(=O)CC2` returned a melting point of 171 to 174 °C.

As to `COc1cccc(CCNCCCCC(=O)c2cc3c4c(c2)CCN4C(=O)CC3)c1OC.Cl`, the melting point was 154 to 156 °C.

`COc1ccc(C(=O)CCCCNCCc2ccccc2)cc1S(N)(=O)=O.Cl` yielded a melting point of 160 to 168 °C.

In the case of `COc1ccccc1CCNCCCCC(=O)c1ccc(OC)c(S(N)(=O)=O)c1.Cl`, the melting point lay in the range of 139 to 141 °C.

Consider `COc1ccc(C(=O)CCCCNCCc2ccccc2Cl)cc1S(N)(=O)=O.Cl`, for which the melting point was 161 to 163 °C.

`COc1ccccc1CCNCCCCC(=O)c1ccc(OC)c(S(=O)(=O)NC(C)C)c1.Cl` displayed a melting point of 164 to 166 °C.

As to `COc1ccc(C(=O)CCCCNCCc2ccccc2Cl)cc1S(=O)(=O)NC(C)C.Cl`, the melting point lay within 179 to 181 °C.

Regarding `Cl.NS(=O)(=O)c1cc(C(=O)CCCCNCCc2ccccc2Cl)cc2c1OCC2`, the melting point lay in the range of 160 to 170 °C.

In turn, `COc1ccccc1CCNCCCCC(=O)c1cc2c(c(S(=O)(=O)NC(C)C)c1)OCC2.Cl` registered a melting point of 157 to 159 °C.

The molecule `CC(C)NS(=O)(=O)c1cc(C(=O)CCCCNCCc2ccccc2Cl)cc2c1OCC2.Cl` gave a melting point of 149 to 151 °C.

`Cl.NS(=O)(=O)c1cc(C(=O)CCCCNCCc2ccccc2)cc2c1OCCO2` registered a melting point of 152 to 154 °C.

With `COc1ccccc1CCNCCCCC(=O)c1cc2c(c(S(N)(=O)=O)c1)OCCO2.Cl`, the melting point lay within 166 to 168 °C.

In the case of `Cl.NS(=O)(=O)c1cc(C(=O)CCCCNCCc2ccccc2Cl)cc2c1OCCO2`, the melting point lay within 178 to 180 °C.

Take `COc1ccc(C(=O)CCCCNCCc2ccccc2)cc1NS(C)(=O)=O.Cl`: the melting point was 131 to 133 °C.

`COc1ccccc1CCNCCCCC(=O)c1ccc(OC)c(NS(C)(=O)=O)c1.Cl` showed a melting point of 129 to 131 °C.

`COc1ccc(C(=O)CCCCNCCc2ccccc2Cl)cc1NS(C)(=O)=O.Cl`: the melting point is 133 to 135 °C.

In the case of `COc1ccc(C(=O)CCCCCNCCc2ccccc2)cc1NS(C)(=O)=O.Cl`, the melting point was in the range of 136 to 138 °C.

`COc1ccccc1CCNCCCCCC(=O)c1ccc(OC)c(NS(C)(=O)=O)c1.Cl` came in with a melting point of 142 to 144 °C.

Regarding `COc1ccc(C(=O)CCCCCNCCc2ccccc2Cl)cc1NS(C)(=O)=O.Cl`, the melting point lay in the range of 112 to 115 °C.

Turning to `COc1ccccc1CCNCCCCC(=O)c1c[nH]c2ccccc12.Cl`, the melting point is 143 to 145 °C.

As to `Cl.O=C(CCCCNCCc1ccccc1Cl)c1c[nH]c2ccccc12`, the melting point lay within 149 to 151 °C.

In turn, `Cl.O=C(CCCCCNCCc1ccccc1Cl)c1c[nH]c2ccccc12` yielded a melting point of 151 to 153 °C.

The molecule `COc1ccccc1CCNCCCCC(=O)c1cccs1.Cl` showed a melting point of 101 to 103 °C.

Molecule `Cl.O=C(CCCCNCCc1ccccc1Cl)c1cccs1` gave a melting point of 146 to 147 °C.

`COc1ccccc1CCNCCCCCC(=O)c1cccs1.Cl` yielded a melting point of 107 to 109 °C.

Molecule `Cl.O=C(CCCCCNCCc1ccccc1Cl)c1cccs1` had a melting point of 149 to 151 °C.

Take `COc1ccccc1CCNCCCCC(=O)c1cc2c3c(c1)CCN3C(=O)CC2.Cl`: the melting point lay in the range of 94 to 96 °C.

Regarding `COc1cccc(CCNCCCCCC(=O)c2cc3c4c(c2)CCN4C(=O)CC3)c1.Cl`, the melting point lay in the range of 136 to 138 °C.

The molecule `COc1ccc(CCNCCCCCC(=O)c2cc3c4c(c2)CCN4C(=O)CC3)cc1.Cl` returned a melting point of 179 to 180 °C.

The molecule `Cl.O=C(CCCCCNCCc1ccccc1Cl)c1cc2c3c(c1)CCN3C(=O)CC2` gave a melting point of 172 to 174 °C.

Turning to `CN(CCCCCC(=O)c1cc2c3c(c1)CCN3C(=O)CC2)CCc1ccccc1.Cl`, the melting point was in the range of 83 to 85 °C.

Molecule `COc1cccc(CCN(C)CCCCCC(=O)c2cc3c4c(c2)CCN4C(=O)CC3)c1.Cl` displayed a melting point of 116 to 118 °C.

`Cl.O=C1NCc2cc(C(=O)CCCCNCCc3ccccc3)ccc2N1`: the melting point is 199 to 205 °C (dec.).

For the molecule `COc1ccccc1CCNCCCCC(=O)c1ccc2c(c1)CNC(=O)N2.Cl`, the melting point was 176 to 180 °C (dec.).

On to `Cl.O=C1NCc2cc(C(=O)CCCCNCCc3ccccc3Cl)ccc2N1`, for which the melting point was 176 to 185 °C (dec.).

Molecule `CN(CCCCC(=O)c1ccc2c(c1)CNC(=O)N2)CCc1ccccc1.Cl` returned a melting point of 164 to 166 °C.

With `COc1ccccc1CCN(C)CCCCC(=O)c1ccc2c(c1)CNC(=O)N2.Cl`, the melting point is 170 to 171 °C (dec.).

In turn, `CN(CCCCC(=O)c1ccc2c(c1)CN(C)C(=O)N2C)CCc1ccccc1.Cl` had a melting point of 174 to 176 °C.

Regarding `COc1ccccc1CCN(C)CCCCC(=O)c1ccc2c(c1)CN(C)C(=O)N2C.Cl`, the melting point fell in the range of 145 to 146 °C.

As for `CN(CCCCC(=O)c1ccc2c(c1)CN(C)C(=O)N2C)CCc1ccccc1Cl.Cl`, the melting point was in the range of 187 to 188 °C.

`COc1ccccc1CCNCCCC(=O)c1cc2c3c(c1)CCN3C(=O)CC2.Cl` displayed a melting point of 165 to 167 °C.

`COc1cccc(CCNCCCCC(=O)c2cc3c4c(c2)CCN4C(=O)CC3)c1.Cl` returned a melting point of 97 to 100 °C.

`Cl.O=C(CCCCCNCc1ccccc1)c1cc2c3c(c1)CCN3C(=O)CC2` displayed a melting point of 181 to 183 °C.

`COc1ccccc1CCN1CCC(CCC(=O)c2cc3c4c(c2)CCN4C(=O)CC3)CC1.Cl` registered a melting point of 209 to 211 °C.

`COc1cccc(CCN2CCC(CCC(=O)c3cc4c5c(c3)CCN5C(=O)CC4)CC2)c1.Cl` returned a melting point of 240 to 242 °C.

In turn, `COc1ccc(CCN2CCC(CCC(=O)c3cc4c5c(c3)CCN5C(=O)CC4)CC2)cc1.Cl` showed a melting point of 141 to 143 °C.

Molecule `CCOc1ccccc1CCN1CCC(CCC(=O)c2cc3c4c(c2)CCN4C(=O)CC3)CC1.Cl` displayed a melting point of 182 to 184 °C.

`Cl.O=C(CCC1CCN(CCc2ccccc2O)CC1)c1cc2c3c(c1)CCN3C(=O)CC2` registered a melting point of 220 to 222 °C.

`Cc1cccc(CCN2CCC(CCC(=O)c3cc4c5c(c3)CCN5C(=O)CC4)CC2)c1.Cl` had a melting point of 197 to 199 °C.

With `Cl.O=C(CCC1CCN(CCc2ccccc2Cl)CC1)c1cc2c3c(c1)CCN3C(=O)CC2`, the melting point is 207 to 210 °C.

`Cl.O=C(CCC1CCN(CCc2ccc(Cl)cc2)CC1)c1cc2c3c(c1)CCN3C(=O)CC2` displayed a melting point of 204 to 206 °C.

The molecule `Cl.O=C(CCC1CCN(CCc2ccc([N+](=O)[O-])cc2)CC1)c1cc2c3c(c1)CCN3C(=O)CC2` showed a melting point of 217 to 219 °C.

For `Cl.O=C(CCC1CCN(CCc2c(Cl)cccc2Cl)CC1)c1cc2c3c(c1)CCN3C(=O)CC2`, the melting point fell in the range of 226 to 229 °C.

Regarding `Cl.O=C(CCC1CCN(CCc2c[nH]c3ccccc23)CC1)c1cc2c3c(c1)CCN3C(=O)CC2`, the melting point was 157 to 159 °C.

With `Cl.O=C(CCC1CCN(CC(=O)c2ccccc2)CC1)c1cc2c3c(c1)CCN3C(=O)CC2`, the melting point is 114 to 116 °C.

The molecule `CCOc1ccccc1OCCN1CCC(CCC(=O)c2ccc(OC)c(NC(C)=O)c2)CC1.Cl` had a melting point of 127 to 129 °C.

Take `COc1ccc2c(c1)CCCN(CCCC(=O)c1cc3c4c(c1)CCN4C(=O)CC3)C2.Cl`: the melting point was 121 to 123 °C.

As for `Cl.O=C(CCCCNC1Cc2ccccc2C1)c1cc2c3c(c1)CCN3C(=O)CC2`, the melting point was 187 to 189 °C.

On to `COc1cc2c(cc1OC)CN(CCCCC(=O)c1cc3c4c(c1)CCN4C(=O)CC3)CC2.Cl`, for which the melting point lay within 215 to 217 °C.

`COc1cc2c(cc1OC)CN(CCCCCC(=O)c1cc3c4c(c1)CCN4C(=O)CC3)CC2.Cl` had a melting point of 216 to 218 °C.

`Cl.O=C(CCCCCN1CCc2ccccc2CC1)c1cc2c3c(c1)CCN3C(=O)CC2` yielded a melting point of 222 to 225 °C.

`Cl.O=C(CCCCNCCCc1ccccc1)c1cc2c3c(c1)CCN3C(=O)CC2`: the melting point fell in the range of 116 to 118 °C.

In the case of `Cl.O=C(CCCCNCCc1ccccc1Cl)c1cc2c3c(c1)CCN3C(=O)CC2`, the melting point fell in the range of 128 to 130 °C.

For the molecule `Cl.O=C(CCCCNCCc1cccc(F)c1)c1cc2c3c(c1)CCN3C(=O)CC2`, the melting point fell in the range of 172 to 173 °C.

Take `COc1ccc(CCNCCCCC(=O)c2cc3c4c(c2)CCN4C(=O)CC3)cc1S(N)(=O)=O.Cl`: the melting point was 145 °C (dec.).

`Cl.O=C(CCCCCN1CCCc2ccccc2C1)c1cc2c3c(c1)CCN3C(=O)CC2` yielded a melting point of 195 to 197 °C.

`Cc1ccccc1CCN1CCC(CCC(=O)c2cc3c4c(c2)CCN4C(=O)CC3)CC1.Cl`: the melting point was 215 to 216 °C.

For `Cl.O=C(CCC1CCN(CCc2ccccc2F)CC1)c1cc2c3c(c1)CCN3C(=O)CC2`, the melting point was 210 to 212 °C.

In the case of `Cl.O=C(CCC1CCN(CCc2cccc(Cl)c2)CC1)c1cc2c3c(c1)CCN3C(=O)CC2`, the melting point was in the range of 223 to 225 °C.

Regarding `Cl.O=C(CCC1CCN(C2Cc3ccccc3C2)CC1)c1cc2c3c(c1)CCN3C(=O)CC2`, the melting point is 290 °C (dec.).

`Cl.O=C(CCC1CCN(CCCc2ccccc2)CC1)c1cc2c3c(c1)CCN3C(=O)CC2` showed a melting point of 173 to 175 °C.
